Values after ≈ are worked out from the molar mass of the structure shown. Like-named read-outs stand apart in the source and are kept apart here.
Legend:
[1] = Stability in mouse plasma assay; assay type: in vitro ADME; conditions: 1 μM, 37 °C, 2 h incubation
Description: Thaw plasma at room temperature and vortex for 3–5 s. Centrifuge at 3000 rpm at 10 °C for 10 min, and carefully transfer the supernatant to a new Eppendorf tube. Preincubate the plasma at 37 °C for 10 min. Prepare a series of test substances by adding 3 μL of the compound (100 μM) to 297 μL of plasma to achieve a final concentration of 1 μM, ensuring that the DMSO concentration in plasma is 1%. Propantheline bromide is used as a positive control. Incubate the mixture at 37 °C, and at specified time points (0, 1, 2, 4, and 24 h), take 50 μL of the plasma sample. To terminate the reaction, add 250 μL of acetonitrile (containing an internal standard), vortex thoroughly, and centrifuge at 16,000 rcf (4 °C) for 10 min. Collect 130 μL of the supernatant and dilute with 70 μL of pure water for LC-MS/MS analysis. The concentration of the test substances in plasma samples was determined using LC-MS/MS. The stability of the test substance in plasma was evaluated by measuring the remaining percentage of the compound in the plasma over time.

PANC-1 cells = assay: MTT cell activity assay (inhibitory activity against PANC-1 cells); assay type: cell-based
Description: A total of 3000 PANC-1 cells were resuspended in 200 μL of culture medium and seeded into 96-well plates. After 24 h, the cells were treated with the compound and incubated for an additional 72 h. Following the incubation, 20 μL of 5 mg/mL MTT solution (Solarbio, China) was added to each well in the dark, and the cells were incubated for another 4 h. After incubation, the culture medium was discarded, and the wells were washed with PBS to remove any residual medium. Then, 200 μL of DMSO was added to each well to fully dissolve the formazan crystals, and the solution was mixed thoroughly. The absorbance was measured at 492 nm/570 nm, and the data were analyzed using GraphPad Prism.

[2] = Preliminary water solubility test; assay type: physicochemical; conditions: thermodynamic from solid, 25 °C, ultrasonic treatment 30 min, visual
PANC-1 xenograft tumor = system: PANC-1 xenograft tumor
Description: Furthermore, a xenografted murine subcutaneous tumor model was employed to evaluate the effects of majusculamide D and the optimized analogues 1c and 1n (Figure 1B). PANC1-bearing BALB/c nude mice were separated randomly, with a total of six mice in each group. Gemcitabine was chosen as the positive drug; the mice were then administered intravenous doses of 1c (5 mg/kg), 1n (5 mg/kg), 1a (5 mg/kg), and gemcitabine (20 mg/kg) every other day for 24 days.
A total of 4 × 10^6 PANC-1 cells suspended in 100 μL PBS were subcutaneously injected into the right shoulder region of BALB/c nude mice. When the tumor volume reached approximately 200 mm^3, the mice were euthanized, and the tumor tissues were harvested and designated as F1 generation. Tumor tissues were then cut into small cubes measuring approximately 3 × 3 × 3 mm, which were implanted into new BALB/c mice to propagate the tumors. This procedure was repeated to obtain the F2 generation of tumors. Finally, mice bearing F3 generation transplant tumors were used for drug treatment experiments. When the tumor volume reached approximately 80–100 mm^3, the mice were randomly divided into five groups (n = 6): control group, 5 mg/kg compound 1a group, 5 mg/kg compound 1c group, 5 mg/kg compound 1n group, and 20 mg/kg gemcitabine group. The compounds 1a, 1c, and 1n were dissolved in DMSO and then diluted with 0.9% physiological saline to achieve a final concentration of 0.5 mg/mL as the dosing concentration. Gemcitabine was dissolved directly in 0.9% saline to achieve a final concentration of 2 mg/mL as the dosing concentration. The compounds were administered intravenously every two days, alternating between the left and right tail veins to minimize vein damage. Injections were performed using ultra-fine syringes (30G needles) to reduce stress and ensure consistent delivery. The body weight and tumor volume of the mice were measured every four days. On day 24, the mice were euthanized, and the tumor weights were recorded. Tumor volume (V) was calculated using the formula: V = (ab^2)/2, with “a” representing the long diameter of the tumor and “b” representing the short diameter of the tumor. […] Tumor weight was used to calculate the tumor inhibition rate (Figure 1G).

[3] = Homo sapiens, PANC-1, 72 h, read-out: IC50 (nM), inhibitory activity against PANC-1 cells (Table 1), PANC-1 cells, 72 h incubation, mean ± SD, n = 3
[4] = Homo sapiens, PANC-1 cells, 72 h incubation, mean ± SD, n = 3, Table 2 series, read-out: IC50 (nM), inhibitory activity against PANC-1 cells (Table 2)
[5] = read-out: IC50 (nM), inhibitory activity against PANC-1 cells (Table 1), PANC-1 cells, 72 h incubation, mean ± SD, n = 3
[6] = Homo sapiens, PANC-1 cells, 72 h incubation, mean ± SD, n = 3, read-out: IC50 (nM), inhibitory activity against PANC-1 cells (Table 1)

## CC(C)[N+](C)(CCOC(=O)C1c2ccccc2Oc2ccccc21)C(C)C [bromopropyl, Propantheline bromide, reference compound]
[1]
  remaining percentage in mouse plasma after 2 h: 0.90%

## CCCCC(C)CC(C)C(=O)N(C)C(Cc1ccc(OC)cc1)C(=O)NC(C(=O)N(C)C(C(=O)N1CC(O)CC1C(=O)N1CC=CC1=O)C(C)C)C(C)OC(C)=O (centres unmarked) [Compound 1l]
PANC-1 cells; [3]
  IC50: 134 ± 78.2 nM

## CCCC[C@@H](C)C[C@@H](C)C(=O)N(C)[C@@H](Cc1ccc(OC)cc1)C(=O)N[C@H](C(=O)N(C)[C@H](C(=O)N1C[C@@H](O)C[C@H]1C(=O)N1C(=O)C=C[C@@H]1C)C(C)C)[C@@H](C)NC(=O)[C@@H](N)Cc1c[nH]c2ccccc12 [Compound 16c]
[2]
  solubility: 200 µg/mL (≈ 209 µM)
PANC-1 cells; [4]
  IC50: 34.4 ± 4.5 nM

## CCCCC(C)CC(C)C(=O)N(C)C(Cc1ccc(O)cc1)C(=O)NC(C(=O)N(C)C(C(=O)N1CC(O)CC1C(=O)N1C(=O)C=CC1C)C(C)C)C(C)OC(C)=O (centres unmarked) [Compound 14c]
PANC-1 cells; [3]
  IC50: 5.31 ± 1.46 nM

## CCCCC(C)CC(C)C(=O)N(C)C(Cc1ccc(OC)cc1)C(=O)NC(C(=O)N(C)C(C(=O)N1CC(O)CC1C(=O)N1C(=O)C=CC1C)C(C)C)C(C)OC(C)=O (centres unmarked) [Compound 1m]
PANC-1 cells; [5]
  IC50: 4.68 ± 0.59 nM

## CCCC[C@@H](C)C[C@@H](C)C(=O)N(C)[C@@H](Cc1ccc(OC)cc1)C(=O)N[C@H](C(=O)N(C)[C@H](C(=O)N1C[C@@H](O)C[C@H]1C(=O)N1C(=O)C=C[C@@H]1C)C(C)C)[C@@H](C)NC(=O)[C@@H](N)CCSC [Compound 16f]
[2]
  solubility: 170 µg/mL (≈ 189 µM)
PANC-1 cells; [4]
  IC50: 13.1 ± 6.3 nM

## CCCC[C@@H](C)C[C@@H](C)C(=O)N(C)[C@@H](Cc1ccc(OC)cc1)C(=O)N[C@H](C(=O)N(C)[C@H](C(=O)N1C[C@@H](O)C[C@H]1C(=O)N1C(=O)C=C[C@@H]1C)C(C)C)[C@@H](C)NC(=O)C1CCC(=O)N1 (some centres unmarked) [Compound 16k]
[2]
  solubility: 330 µg/mL (≈ 375 µM)
PANC-1 cells; [4]
  IC50: 472 ± 69.7 nM

## CCCC[C@@H](C)C[C@@H](C)C(=O)N(C)[C@@H](Cc1ccc(OC)cc1)C(=O)N[C@H](C(=O)N(C)[C@H](C(=O)N1C[C@@H](O)C[C@H]1C(=O)N1C(=O)C=C[C@@H]1C)C(C)C)[C@@H](C)NC(=O)[C@@H](N)[C@@H](C)O [Compound 16b]
[2]
  solubility: 410 µg/mL (≈ 471 µM)
PANC-1 cells; [4]
  IC50: 116 ± 54 nM

## CCCC[C@@H](C)C[C@@H](C)C(=O)N(C)[C@@H](Cc1ccc(OC)cc1)C(=O)N[C@H](C(=O)N(C)[C@H](C(=O)N1C[C@@H](O)C[C@H]1C(=O)N1C(=O)C=C[C@@H]1C)C(C)C)[C@@H](C)NC(=O)[C@@H]1CCCN1 [Compound 16a]
[2]
  solubility: 210 µg/mL (≈ 242 µM)
PANC-1 cells; [4]
  IC50: 40.8 ± 14.1 nM

## CCCCC(C)CC(C)C(=O)N(C)C(Cc1ccccc1)C(=O)NC(C(=O)N(C)C(C(=O)N1CC(O)CC1C(=O)N1C(=O)C=CC1C)C(C)C)C(C)OC(C)=O (centres unmarked) [Compound 1h]
PANC-1 cells; [3]
  IC50: 72 ± 21.9 nM

## CCCC[C@@H](C)C[C@@H](C)C(=O)N(C)[C@@H](Cc1ccc(OC)cc1)C(=O)N[C@H](C(=O)N(C)[C@H](C(=O)N1C[C@@H](O)C[C@H]1C(=O)N1C(=O)C=C[C@@H]1C)C(C)C)[C@@H](C)NC(=O)CNC [Compound 16d]
[2]
  solubility: 810 µg/mL (≈ 964 µM)
PANC-1 cells; [4]
  IC50: 16.2 ± 6.72 nM

## CCCC[C@@H](C)C[C@@H](C)C(=O)N(C)[C@@H](Cc1ccc(OC)cc1)C(=O)N[C@H](C(=O)N(C)[C@H](C(=O)N1C[C@@H](O)C[C@H]1C(=O)N1C(=O)C=C[C@@H]1C)C(C)C)[C@@H](C)NC(=O)[C@@H](N)CCC(N)=O [Compound 16i]
[2]
  solubility: 530 µg/mL (≈ 591 µM)
PANC-1 cells; [4]
  IC50: 740 ± 713 nM

## Nc1ccn([C@@H]2O[C@H](CO)[C@@H](O)C2(F)F)c(=O)n1 [Gemcitabine, reference compound]
PANC-1 xenograft tumor; calculated from tumor weight, day 24, 1a, 1c, 1n 5 mg/kg, gemcitabine 20 mg/kg i.v.
  tumor inhibition rate (%): 51.0%
PANC-1 xenograft tumor; day 24, i.v. every other day, 1a, 1n 5 mg/kg, gemcitabine 20 mg/kg, mean ± SD
  tumor weight: 0.548 ± 0.153 g
PANC-1 xenograft tumor; mouse, in vivo
  tumor volume: 561.1 ± 177.3 mm^3

## CCCCC(C)CC(C)C(=O)N(C)C(Cc1ccc(OC)cc1)C(=O)NC(C(=O)N(C)C(C(=O)N1CC(F)CC1C(=O)N1C(=O)C=CC1C)C(C)C)C(C)OC(C)=O (centres unmarked) [Compound 1k]
PANC-1 cells; [3]
  IC50: 2.55 ± 0.55 nM

## CCCC[C@@H](C)C[C@@H](C)C(=O)N(C)[C@@H](Cc1ccc(OC)cc1)C(=O)N[C@H](C(=O)N(C)[C@H](C(=O)N1C[C@@H](O)C[C@H]1C(=O)N1C(=O)C=C[C@@H]1C)C(C)C)[C@@H](C)NC(=O)[C@@H](N)CC(C)C [Compound 16e]
[2]
  solubility: 230 µg/mL (≈ 261 µM)
PANC-1 cells; [4]
  IC50: 34.2 ± 6.36 nM

## CCCC[C@@H](C)C[C@@H](C)C(=O)N(C)[C@@H](Cc1ccc(OC)cc1)C(=O)N[C@H](C(=O)N(C)[C@H](C(=O)N1C[C@@H](O)C[C@H]1C(=O)N1C(=O)C=C[C@@H]1C)C(C)C)[C@@H](C)NC(=O)[C@H](C)N [Compound 16h]
[2]
  solubility: 360 µg/mL (≈ 429 µM)
PANC-1 cells; [4]
  IC50: 79.9 ± 45.9 nM

## CCCCC(C)CC(C)C(=O)N(C)C(Cc1ccc(OC)cc1)C(=O)NC(COC(C)=O)C(=O)N(C)C(C(=O)N1CC(O)CC1C(=O)N1C(=O)C=CC1C)C(C)C (centres unmarked) [Compound 1d]
PANC-1 cells; [3]
  IC50: 2.15 ± 0.37 nM

## CCCCC(C)CC(C)C(=O)N(C)C(Cc1ccc(OC)cc1)C(=O)NC(C(=O)N(C)C(C(=O)N1CC(O)CC1C(=O)N1C(=O)C=CC1C)C(C)C)C(C)NC(=S)NC (centres unmarked) [Compound 14b]
PANC-1 cells; [6]
  IC50: 1.06 ± 0.35 nM

## CCCCC(C)CC(C)C(=O)N(C)C(Cc1ccc(-c2ccccc2)cc1)C(=O)NC(C(=O)N(C)C(C(=O)N1CC(O)CC1C(=O)N1C(=O)C=CC1C)C(C)C)C(C)OC(C)=O (centres unmarked) [Compound 1j]
PANC-1 cells; [3]
  IC50: < 1 nM
PANC-1 cells; [5]
  IC50: 0.7 ± 0.07 nM

## CCCCC(C)CC(C)C(=O)N(C)C(Cc1ccc(OC)cc1)C(=O)NC(C(=O)N(C)C(C(=O)N1CC(O)CC1C(=O)N1C(=O)C=CC1C)C(C)C)C(C)NC(C)=O (centres unmarked) [Compound 1e]
PANC-1 cells; [6]
  IC50: 2.94 ± 0.93 nM

## CCCC[C@@H](C)C[C@@H](C)C(=O)N(C)[C@@H](Cc1ccc(OC)cc1)C(=O)N[C@H](C(=O)N(C)[C@H](C(=O)N1C[C@@H](O)C[C@H]1C(=O)N1C(=O)C=C[C@@H]1C)C(C)C)[C@@H](C)NC(=O)CN [Compound 16g]
[2]
  solubility: 160 µg/mL (≈ 194 µM)
PANC-1 cells; [4]
  IC50: 43.1 ± 29.8 nM

## CCCC[C@@H](C)C[C@@H](C)C(=O)N(C)[C@@H](Cc1ccc(OC)cc1)C(=O)N[C@H](C(=O)N(C)[C@H](C(=O)N1C[C@@H](O)C[C@H]1C(=O)N1C(=O)C=C[C@@H]1C)C(C)C)[C@@H](C)NC(=O)[C@@H](N)Cc1ccc(O)cc1 [Compound 16m]
[2]
  solubility: 160 µg/mL (≈ 172 µM)
PANC-1 cells; [4]
  IC50: 278 ± 14.9 nM

## CCCC[C@@H](C)C[C@@H](C)C(=O)N(C)[C@@H](Cc1ccc(OC)cc1)C(=O)N[C@H](C(=O)N(C)[C@H](C(=O)N1C[C@@H](O)C[C@H]1C(=O)N1C(=O)C=C[C@@H]1C)C(C)C)[C@@H](C)NC(=O)[C@@H](N)Cc1ccccc1 [Compound 16l]
[2]
  solubility: 130 µg/mL (≈ 142 µM)
PANC-1 cells; [4]
  IC50: 55.4 ± 14.7 nM

## CCCCC(C)CC(C)C(=O)N(C)C(Cc1ccc(OC)cc1)C(=O)NC(C(=O)N(C)C(C(=O)N1CC(O)CC1C(=O)N1C(=O)C=CC1C)C(C)C)C(C)O (centres unmarked) [Compound 14a]
PANC-1 cells; [3]
  IC50: 1160 ± 195 nM

## CCCC[C@@H](C)C[C@@H](C)C(=O)N(C)[C@@H](Cc1ccc(OC)cc1)C(=O)N[C@H](C(=O)N(C)[C@H](C(=O)N1C[C@@H](O)C[C@H]1C(=O)N1C(=O)C=C[C@@H]1C)C(C)C)[C@@H](C)NC(=O)[C@@H](N)CO [Compound 16j]
[2]
  solubility: 360 µg/mL (≈ 421 µM)
PANC-1 cells; [4]
  IC50: 184 ± 33.2 nM
